Measured values: patent US4201725A, “Secondary amines” (priority 1974, dated 1980)
Entries after “also recorded” stand apart in the source; their conditions may differ. Like-named read-outs stand apart in the source and are kept apart here.

Experiments:
[1] = system: cholinergic effects of tremorine; assay: Anti-tremorine test in vivo; parameters: species or system mice (male, OF1 strain); conditions: for antitremorine properties (in words): 5 mg/kg Compound 1, 40 mg/kg amantadine; for central cholinergic effects (normal and provoked tremor): identical to the peripheral score of 4
Protocol: When injected into mice, tremorine produces peripheral effects i.e. weeping, sweating, salivation and diarrhoea and central effects i.e. tremor and akinesia. Such effects are due to an increase in the amount of intracerebral acetylcholine and serotonine.
[…] Thirty minutes later a dose of 10 mg/kg of tremorine was injected by intraperitoneal route and, at different times after this injection, note was taken of the cholinergic effects on each animal in accordance with the following scale:

[2] = system: arterial pressure and nictitating membrane (norepinephrine); assay: Influence on peripheral noradrenergic phenomena (norepinephrine, anaesthetized cat); conditions: for Contractile reaction of the nictitating membrane without electric stimulation: at 0 mg/kg: 0; for Contractile reaction of the nictitating membrane with electric stimulation: at 0 mg/kg: Compound 1 17, amantadine 20; for Increase in arterial pressure after injection of norepinephrine: at 0 mg/kg: Compound 1 26, amantadine 28
electrocardiogram = assay: Effect on the electrocardiogram; format: in vivo; conditions: amantadine: 5 mg/kg injected, dog
[3] = system: reserpine-induced catatonia; assay: Suppression of reserpine-induced catatonia (curative treatment); format: in vivo, rat (male, OFA strain); conditions: 2.5 and 5 mg/kg oral vs 80 mg/kg amantadine
Protocol: Batches of 5 male rats of the OFA strain, weighing 150 to 200 g were given 5 mg/kg of reserpine by intraperitoneal route. One hour and 45 minutes later, namely when the animals were in a state of catatonia, an aqueous dose of the compound to be studied was administered by oral route to all the animals with the exception of the control group.
The progress of the catatonia was then noted following the scale used in the tests described hereabove.
The maximum score was thus 5 per batch which means that all the animals of the batch were considered to be still in a state of catatonia.

[4] = Spasmolytic activity in vivo; conditions: at antiparkinson doses, well below the toxic dose
[5] = SPERBER et al., J. Amer. Chem. Soc., 71, 3352 (1949); cited from earlier work
[6] = system: neuroleptic-induced catatonia; assay: Suppression of neuroleptic (prochlorperazine)-induced catatonia (curative treatment); format: in vivo, rat (male, OFA strain); conditions: 5 mg/kg vs 80 mg/kg amantadine
Protocol: Batches of 5 male rats of the OFA strain were given 12.5 mg/kg of prochlorperazine by intraperitoneal route. Fifty-five minutes later, an oral dose in aqueous solution of the compound to be studied was administered to all the animals with the exception of the control group. The progress of the catatonia was noted following the same scale as that used in the tests described above.

[7] = SPERBER et al., J. Amer. Chem. Soc., 71, 3352 (1949); cited from earlier work; remark: listed apart in the source
[8] = system: isolated duodenum of the rat; assay: MAGNUS test: cholinolytic/spasmolytic activity on acetylcholine spasm in vitro
Excerpt: This test consists in determining the dose of acetylcholine which, when added to the bath, provokes spasm of the isolated duodenum of the rat. The next step consists in determining the dose of the compound under study which, when added to the bath 30 seconds before the acetylcholine, reduces the spasm.

[9] = system: reserpine-induced catatonia; assay: Inhibition of reserpine-induced catatonia (preventive, oral compound 30 min before reserpine); format: in vivo, rat (male, OFA strain); conditions: for Inhibition of reserpine-induced catatonia: 6 mg/kg oral; for index of reserpine-induced catatonia (numerator of ratio): 0.031 m mol/kg oral, hydrochloride form
Protocol: After sufficient doses of reserpine have been administered to the rat, a series of symptoms occur, more particularly ptosis, catatonia and a drop in central temperature. These symptoms are caused by the depletion of the intragranular reserve pool of biogenetic amines at the synaptic terminals.
An oral dose of the compound to be studied in aqueous solution was administered to batches of 10 male rats of the OFA strain weighing about 150 to 200 g. Thirty minutes later a dose of 5 mg/kg of reserpine was given by intraperitoneal route. Three hours after the injection of reserpine, the animals were suspended by the four paws to a horizontally stretched wire fixed at 15 cm from the ground. The catatonia animals were those which maintained the position so given for at least 30 seconds. […] The maximum score was therefore 10 per batch. An identical trial was undertaken with control animals which received reserpine but none of the compounds being studied.

catalepsy = assay: Prochlorperazine-induced catalepsy (crossing of homolateral paws); format: in vivo, rat; conditions: 5 mg/kg oral 30 min before prochlorperazine i.p.; 3 h after injection
Protocol: Additional trials were carried out on rats with Compound 1 and amantadine. These trails involved catalepsy as evidenced by the crossing of the animal's homolateral paws.

in vivo = conditions: mouse, po
Tremor-inducing action = conditions: 0.031 m mol/kg oral, 30 min, hydrochloride form; for number of animals presenting tremors (denominator of ratio): batches of 10 rats
monoamine oxidase = assay: Inhibitory effect on monoamine oxidase
[10] = system: neuroleptic-induced catatonia; assay: Inhibition of neuroleptic (prochlorperazine)-induced catatonia (preventive); format: in vivo, rat (male, OFA strain); conditions: 6 mg/kg oral
Protocol: The blocking of dopaminergic receptors by neuroleptics in the extra-pyramidal system induces catatonia in the rat. Catatonia is differentiated from sedative properties by means of the test used hereabove for reserpine-induced catatonia. The same system of scoring was also employed in the present case.
An oral dose of the compound to be studied in aqueous solution was administered to batches of 10 male rats of the OFA strain weighing about 150 to 200 g.
Three hours after the injection of this latter compound, catatonia was measured. An identical trial was also carried out with control animals which received prochlorperazine but none of the compounds under study.
The scoring system used was that given hereabove for Table I.

In the case of NC12CC3CC(CC(C3)C1)C2 [Amantadine, 1-amino-adamantane, reference compound], the “antitremorine properties (in words)” value [1] is reported as “devoid of antitremorine properties”, the “central cholinergic effects (normal and provoked tremor)” value ([1]; 40 mg/kg oral) is reported as “Identical results” and the “effect on the nictitating membrane (in words)” value ([2]; cat, i.v.) is reported as “stimulates the contractile reactions of the nictitating membrane but does not potentiate the effects of the electric stimulation”. For the same compound, the “potentiation of norepinephrine / peripheral adrenergic effects (in words)” value ([2]; cat, i.v.) was “potentiates exogenous norepinephrine from 1 mg/kg”, the “potentiation of norepinephrine / peripheral adrenergic effects (in words)” value ([2]; cat, i.v., listed as amantadine) was “potentiates the peripheral adrenergic effects” and the “effect on the electrocardiogram (in words)” value (electrocardiogram) was “provokes cardiac arrhythmia due to ventricular extrasystoles”.

In the case of CCCC(N)(CCC)CCC [Compound 1], the “antitremorine properties (in words)” value [1] is reported as “devoid of antitremorine properties”, the “central cholinergic effects (normal and provoked tremor)” value ([1]; 5 mg/kg oral) is reported as “Identical results” and the “cholinolytic properties in vivo (in words)” value ([1]; therapeutic doses) is reported as “absence of cholinolytic properties”. For the same compound, the “suppression of reserpine-induced catatonia (in words)” value [3] was “suppresses reserpine-induced catatonia more rapidly than a dose of 80 mg/kg of amantadine”, the “spasmolytic activity in vivo (in words)” value [4] was “non-existent” and the “spasmolytic activity (in words)” value [5] was “less spasmolytic”. For the same compound, the “action against neuroleptic-induced catatonia (in words)” value [6] was “acts against neuroleptic-induced catatonia more rapidly than does a dose of 80 mg/kg of amantadine”, the “potentiation of norepinephrine / peripheral adrenergic effects (in words)” value ([2]; cat, i.v.) was “does not potentiate the effects either of exogenous norepinephrine or of endogenous norepinephrine” and the “Contractile reaction of the nictitating membrane without electric stimulation” value ([2]; cumulative dose 0.1 mg/kg i.v.) was 0 mm. For the same compound, the “Contractile reaction of the nictitating membrane with electric stimulation” value (“Contractile reaction … with electric stimulation” below) ([2]; cumulative dose 0.1 mg/kg i.v.) was 15 mm, the “Increase in arterial pressure after injection of norepinephrine” value (from here on “Increase in arterial pressure”) ([2]; cumulative dose 0.1 mg/kg i.v.) was 18 mm Hg and the “Contractile reaction of the nictitating membrane without electric stimulation” value ([2]; cumulative dose 1 mg/kg i.v.) was 0 mm. For the same compound, the “Contractile reaction … with electric stimulation” value ([2]; cumulative dose 1 mg/kg i.v.) was 16 mm, the “Increase in arterial pressure” value ([2]; cumulative dose 1 mg/kg i.v.) was 25 mm Hg and the “Contractile reaction of the nictitating membrane without electric stimulation” value ([2]; cumulative dose 3 mg/kg i.v.) was 0 mm. For the same compound, the “Contractile reaction … with electric stimulation” value ([2]; cumulative dose 3 mg/kg i.v.) was 17 mm, the “Increase in arterial pressure” value ([2]; cumulative dose 3 mg/kg i.v.) was 29 mm Hg and the “Contractile reaction of the nictitating membrane without electric stimulation” value ([2]; cumulative dose 5 mg/kg i.v.) was 0 mm. The “Contractile reaction … with electric stimulation” value ([2]; cumulative dose 5 mg/kg i.v.) was 16 mm, the “Increase in arterial pressure” value ([2]; cumulative dose 5 mg/kg i.v.) was 25 mm Hg and the “Contractile reaction of the nictitating membrane without electric stimulation” value ([2]; cumulative dose 10 mg/kg i.v.) was 0 mm. The “Contractile reaction … with electric stimulation” value ([2]; cumulative dose 10 mg/kg i.v.) was 12 mm, the “Increase in arterial pressure” value ([2]; cumulative dose 10 mg/kg i.v.) was 22 mm Hg and the “toxicity (in words)” value [7] was “more toxic than the corresponding trialkylethylamines”. The “spasmolytic / cholinolytic activity in vitro (in words)” value [8] was “virtually non-existent in comparison with that of atropine; also recorded: extremely weak cholinolytic action”, the “spasmolytic / cholinolytic activity in vitro (in words)” value ([8]; listed as tri-n-propylmethylamine) was “very weak, in fact practically non-existent” and the “activity in pharmacological trials (in words)” value ([9]; rat, in vivo) was “marked degree of activity”. The “inhibition of the catalepsy” value (catalepsy) was “complete inhibition of the catalepsy”.

For CCCCC(N)(CCCC)CCCC [Compound 12, 1,1-Di-n-butyl-n-pentylamine], the “spasmolytic activity (in words)” value [5] is listed as “less spasmolytic”, the selectivity ratio (in vivo) is listed as 25 and the “toxicity (in words)” value [7] is listed as “more toxic than the corresponding trialkylethylamines”.

In the case of CCCC(CCC)(CCC)NC [Compound 27, N-Methyl-1,1-di-n-propyl-n-butylamine], the “number of animals presenting tremors (denominator of ratio)” value (“number … (denominator of ratio)” below) (Tremor-inducing action) is reported as 4, the “ratio of index of reserpine-induced catatonia inhibition to number of animals presenting tremors” value (Tremor-inducing action) is reported as 1 and the selectivity ratio (in vivo) is reported as 16.5. The “inhibitory effects on the monoamine oxidase (in words)” value (monoamine oxidase) was “practically devoid of inhibitory effects”, the “Inhibition of reserpine-induced catatonia” value [9] was 4 (represents 100% inhibition of catatonia in comparison with the controls) and the “index of reserpine-induced catatonia (numerator of ratio)” value (shortened to “index … (numerator of ratio)”) [9] was 4 (represents 100% inhibition of catatonia in comparison with the controls). The “Inhibition of the neuroleptic-induced catatonia” value [10] was 3 (represents 70 to 80% inhibition of catatonia in comparison with the controls).

For CCCC(CCC)(NC)C(C)C [Compound 30, N-Methyl-1-n-propyl-1-isopropyl-n-butylamine], the “number … (denominator of ratio)” value (Tremor-inducing action) was 3, the “ratio of index of reserpine-induced catatonia inhibition to number of animals presenting tremors” value (Tremor-inducing action) was 1.33 and the selectivity ratio (in vivo) was > 25. The “Inhibition of reserpine-induced catatonia” value [9] was 4 (represents 100% inhibition of catatonia in comparison with the controls), the “index … (numerator of ratio)” value [9] was 4 (represents 100% inhibition of catatonia in comparison with the controls) and the “Inhibition of the neuroleptic-induced catatonia” value [10] was 3 (represents 70 to 80% inhibition of catatonia in comparison with the controls).

For C#CCNC(CCC)(CCC)CCC [Compound 36, N-Propargyl-1,1-di-n-propyl-n-butylamine], the “number … (denominator of ratio)” value (Tremor-inducing action) was 5, the “ratio of index of reserpine-induced catatonia inhibition to number of animals presenting tremors” value (Tremor-inducing action) was 0.60 and the selectivity ratio (in vivo) was > 25. For the same compound, the “Inhibition of reserpine-induced catatonia” value [9] was 1 (represents 20 to 30% inhibition of catatonia in comparison with the controls), the “index … (numerator of ratio)” value [9] was 3 (represents 70 to 80% inhibition of catatonia in comparison with the controls) and the “Inhibition of the neuroleptic-induced catatonia” value [10] was 4 (represents 100% inhibition of catatonia in comparison with the controls).
